According to ChEMBL document CHEMBL4270553, “Synthesis and anticancer activity of new dihydropyrimidinone derivatives” (Eur J Med Chem, 2018):

How the values were obtained:
[1] = molecular target: Kinesin-like protein KIF11 (Homo sapiens, UniProt P52732); test: Inhibition of human Eg5
[2] = system: NCI-H1299; test: Cytotoxicity against human NCI-H1299 cells after 24 hrs by MTT assay; format: functional, cell-based; conditions: NCI-H1299, 24 h
[3] = system: PC-3; test: cells; conditions: Homo sapiens, PC-3, 24 h
Description: Cytotoxicity against human PC3 cells after 24 hrs by MTT assay

Sequence of Kinesin-like protein KIF11 (P52732 whole entry): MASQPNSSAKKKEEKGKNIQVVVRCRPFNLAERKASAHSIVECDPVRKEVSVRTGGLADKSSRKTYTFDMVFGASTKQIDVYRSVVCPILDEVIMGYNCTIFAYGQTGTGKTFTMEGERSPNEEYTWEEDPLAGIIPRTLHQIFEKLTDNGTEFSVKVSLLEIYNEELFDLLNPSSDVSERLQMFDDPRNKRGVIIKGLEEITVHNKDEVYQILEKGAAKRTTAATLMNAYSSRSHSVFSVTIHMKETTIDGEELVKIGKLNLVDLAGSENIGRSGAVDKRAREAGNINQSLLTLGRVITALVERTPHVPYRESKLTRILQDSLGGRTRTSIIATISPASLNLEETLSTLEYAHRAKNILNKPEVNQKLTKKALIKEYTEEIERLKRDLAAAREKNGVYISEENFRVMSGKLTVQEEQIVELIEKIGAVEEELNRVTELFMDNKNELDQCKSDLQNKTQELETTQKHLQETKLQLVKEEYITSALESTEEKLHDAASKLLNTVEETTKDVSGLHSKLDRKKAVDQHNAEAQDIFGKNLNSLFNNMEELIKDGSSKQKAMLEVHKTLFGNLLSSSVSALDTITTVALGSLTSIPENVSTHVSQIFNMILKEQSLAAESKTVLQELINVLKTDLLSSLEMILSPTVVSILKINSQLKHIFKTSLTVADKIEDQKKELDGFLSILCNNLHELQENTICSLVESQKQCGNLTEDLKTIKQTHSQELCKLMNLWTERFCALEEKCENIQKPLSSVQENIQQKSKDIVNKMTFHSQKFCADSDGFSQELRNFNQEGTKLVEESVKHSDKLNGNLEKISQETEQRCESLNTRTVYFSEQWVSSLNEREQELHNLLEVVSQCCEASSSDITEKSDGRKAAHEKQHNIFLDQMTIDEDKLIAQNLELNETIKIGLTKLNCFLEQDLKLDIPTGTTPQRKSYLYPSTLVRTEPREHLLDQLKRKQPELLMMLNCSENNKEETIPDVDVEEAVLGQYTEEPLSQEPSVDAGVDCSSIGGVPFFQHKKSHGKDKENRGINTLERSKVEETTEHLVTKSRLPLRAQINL

IC50 [1]	IC50 [3]	SMILES	IC50 [2]
14 µM		CCOC(=O)C1=C(C)NC(=O)NC1c1cccc(O)c1 (stereo not drawn)	
	37 µM	CCOC(=O)C1=C(C)Nc2nc3ccccc3n2C1c1c(O)ccc2ccccc12 (stereo not drawn)	40 µM
